Each block holds one compound with its values, some of them ahead of it.
How the values were obtained:
[1] = system: SLα mRNA expression in grass carp pituitary cells; assay: SLα mRNA expression (qPCR) in grass carp pituitary cells; type: cell-based, grass carp (Ctenopharyngodon idellus); conditions: for effect on SLα mRNA expression induced by IGF-I or senktide treatment alone: senktide 1 µM, IGF-I 100 nM; for effect on SLα mRNA expression induced by IGF-I or senktide treatment alone / effect on the synergistic effect on SLα mRNA expression caused by IGF-I and senktide cotreatment: inhibitors 10 µM, 2-APB 100 µM, calmidazolium 1 µM (Figure 5A–C); for effect on the synergistic effect on SLα mRNA expression caused by IGF-I and senktide cotreatment: senktide (1 µM) + IGF-I (100 nM); for SLα mRNA levels, activator alone: static incubation for 24 h, 8Br.cAMP 10 µM, forskolin 1 µM, Dic8 100 µM, TPA 10 µM, A23187 100 nM, BayK8644 100 nM (Figure 5D); for enhancement of the stimulatory effects of TAC3 gene products on SLα mRNA expression: IGF-I/-II cotreatment
Description: (§1) Grass carp pituitary cells prepared by the trypsin/DNase digestion method were seeded in 24-well plates at ~2.5 × 10^6 cells/mL/well. On the following day, drug treatment was initiated by replacing the old medium with a testing medium with the appropriate levels of test substances, and the cells were then allowed to incubate at 28 °C for the duration as indicated. After drug treatment, total RNA was extracted from individual wells and reversely transcribed as above. The RT samples obtained were subjected to qPCR using a LightCycler SYBR Green I Kit (Roche, Stockholm, Sweden) with the primers mentioned above. In these studies, serial dilutions of plasmid DNA containing the ORF of SLα (GeneBank no.: EF372074) and TACR3 (GenBank no: JQ254913) cDNA were used as the standards for data calibration. Parallel real-time PCR measurement of β-actin was also conducted in individual experiments to serve as the internal control.
(§2) For real-time PCR of SLα and TACR3 mRNA measurement, standard curves with a dynamic range of ≥10^5 and correlation coefficient of ≥0.95 were used for data calibration with the RotorGene-Q software 1.7 (Qiagen) under unsupervised mode. SLα and TACR3 mRNA data were normalized with the β-actin transcript level and then were transformed as a percentage of the mean value in the control group without drug treatment (as “%Ctrl”). For the calcium bioluminescence signals and raw data obtained from luciferase reporter assays, the luminescence signals or luciferase activity was expressed as “relative luminescence unit (RLU)” registered by the fluorescence plate reader. For individual samples of the luciferase reporter assay, the firefly luciferase activity detected was routinely normalized against Renilla Luciferase activity expressed in the same well and expressed as the luciferase activity ration (as “Luc Ratio”). For receptor binding assay, specific binding of FAM-NKBa was measured in terms of “Arbitrary Fluorescence Unit (AFU)”. The six replicates presented (expressed as Mean ± SEM) were pooled results from two individual experiments prior to statistical analysis; all data were tested for normality of distribution using the Shapiro–Wilk normality test. Then, one-way ANOVA and two-way ANOVA were used to test the significant difference according to different experiment groups. The differences between groups were considered as significant at P < 0.05 (“*”) or highly significant at P < 0.01 (“**”).

[2] = system: TACR3 mRNA expression in grass carp pituitary cells; assay: TACR3 mRNA expression (qPCR) in grass carp pituitary cells; type: cell-based, grass carp (Ctenopharyngodon idellus); conditions: for TACR3 mRNA expression, time course: 100 nM, from 1 h to 24 h (Figure 3B); for TACR3 mRNA expression, dose-dependence: 24-h incubation, 0.01–100 nM (Figure 3C); for effect on IGF-I-induced TACR3 mRNA expression: 24 h cotreatment with IGF-I (10 nM), inhibitors 10 µM, wortmannin 1 µM, rapamycin 20 nM
Description: as §1, §2

grass carp TACR3 = biological target: T1, grass carp TACR3 (Ctenopharyngodon idella, UniProt A0A075BDW2); assay: Fluorescence-based receptor binding assay, displacement of FAM-NKBa tracer; parameters: species or system grass carp (Ctenopharyngodon idellus); conditions: HEK-293 cells with stable expression of grass carp TACR3, 30 min pretreatment with competitor, then FAM-NKBa (10 nM) 30 min, 37 °C; bound given in μM; read-out: IC50 for displacing FAM-NKBa binding
T1 sequence (A0A075BDW2 1-395): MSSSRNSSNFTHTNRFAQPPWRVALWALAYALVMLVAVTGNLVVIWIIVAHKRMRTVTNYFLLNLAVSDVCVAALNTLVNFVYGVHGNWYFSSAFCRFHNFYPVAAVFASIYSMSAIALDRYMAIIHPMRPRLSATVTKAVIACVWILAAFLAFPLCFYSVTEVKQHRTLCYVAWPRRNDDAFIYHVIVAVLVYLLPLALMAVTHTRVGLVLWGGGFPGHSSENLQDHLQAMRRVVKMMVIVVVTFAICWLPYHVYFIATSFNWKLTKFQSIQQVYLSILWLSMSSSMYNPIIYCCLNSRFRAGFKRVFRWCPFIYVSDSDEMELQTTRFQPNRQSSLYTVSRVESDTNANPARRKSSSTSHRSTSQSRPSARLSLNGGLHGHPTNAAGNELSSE
Description: The cells were then harvested and seeded onto 24-well plates at a density of 0.1 million/well and incubated at 37 °C under 5% CO2 for 24 h prior to the experiments. On the day of the experiments, the culture medium was aspirated and replaced with 500 μL serum-free DMEM with or without appropriated levels of unlabeled competitors. Cells were then allowed to incubate for 30 min at 37 °C under 5% CO2 and saturated humidity. FAM Carboxyfluorescein-labeled NKBa, namely FAM-NKBa, was used as a tracer for receptor binding experiments, and a 50-μL volume of FAM-NKBa (10 nM) was added into individual wells. After further incubation for 30 min at 37 °C, the cells were washed twice and with 500 μl PBS each to remove unbound ligands. […] The supernatant from individual wells was then collected in a 96-wells black view plate, and fluorescence signals indicative of FAM-NKBa binding were registered using FluoStar OPTIMA with excitation at 490 nm and emission at 520 nm.
For receptor binding assay, specific binding of FAM-NKBa was measured in terms of “Arbitrary Fluorescence Unit (AFU)”. The six replicates presented (expressed as Mean ± SEM) were pooled results from two individual experiments prior to statistical analysis; all data were tested for normality of distribution using the Shapiro–Wilk normality test. […]

Compound: COc1ccc2c(c1)CC[C@@H]1[C@@H]2CC[C@]2(C)[C@@H](NCCCCCCN3C(=O)C=CC3=O)CC[C@@H]12 [U73122]
effect on SLα mRNA expression induced by IGF-I or senktide treatment alone [1]: attenuated
effect on the synergistic effect on SLα mRNA expression caused by IGF-I and senktide cotreatment [1]: notably suppressed

Compound: CN([C@@H](Cc1ccc(OS(=O)(=O)c2cccc3cnccc23)cc1)C(=O)N1CCN(c2ccccc2)CC1)S(=O)(=O)c1cccc2cnccc12 [KN62]
effect on SLα mRNA expression induced by IGF-I or senktide treatment alone [1]: attenuated
effect on the synergistic effect on SLα mRNA expression caused by IGF-I and senktide cotreatment [1]: notably suppressed

Compound: COC(=O)C1=C(C)NC(C)=C([N+](=O)[O-])C1c1ccccc1C(F)(F)F (stereo not drawn) [BayK8644]
SLα mRNA levels, activator alone [1]: effective in elevating SLα mRNA levels

Compound: IGF-I: Human insulin-like growth factor I, purchased from Sigma
TACR3 mRNA expression, time course [2]: significantly stimulate TACR3 mRNA expression
TACR3 mRNA expression, dose-dependence [2]: trigger TACR3 mRNA expression in a concentration-related fashion
enhancement of the stimulatory effects of TAC3 gene products on SLα mRNA expression [1]: up to 8 fold increase
SLα mRNA levels, treatment alone, time course ([1]; NKBRPa 1 µM, IGF-I 100 nM (Figure 4A)): induce SLα mRNA levels
NKBRPa-induced SLα transcript level enhanced by IGF-I cotreatment ([1]; NKBRPa (1 µM) + IGF-I (100 nM), especially after 12–24 h): up to 10 folds basal

Compound: Clc1ccc(C(c2ccc(Cl)cc2)n2cc[n+](CC(OCc3ccc(Cl)cc3Cl)c3ccc(Cl)cc3Cl)c2)cc1 (stereo not drawn) [calmidazolium]
effect on SLα mRNA expression induced by IGF-I or senktide treatment alone [1]: attenuated
effect on the synergistic effect on SLα mRNA expression caused by IGF-I and senktide cotreatment [1]: notably suppressed

Compound: Nc1ncnc2c1nc(Br)n2[C@@H]1O[C@@H]2COP(=O)(O)O[C@H]2[C@H]1O [8Br.cAMP]
SLα mRNA levels, activator alone [1]: effective in elevating SLα mRNA levels

Compound: COc1cc([C@@H]2c3cc4c(cc3[C@H](O)[C@H]3COC(=O)[C@@H]23)OCO4)cc(OC)c1OC [PPP]
effect on IGF-I-induced TACR3 mRNA expression [2]: partially inhibited

Compound: CNc1ccc2oc(C[C@H]3O[C@@]4(CC[C@H]3C)O[C@H]([C@H](C)C(=O)c3ccc[nH]3)[C@H](C)C[C@H]4C)nc2c1C(=O)O [A23187]
SLα mRNA levels, activator alone [1]: effective in elevating SLα mRNA levels

Compound: IGF-II: Human insulin-like growth factor II, purchased from Sigma
TACR3 mRNA expression, time course [2]: significantly stimulate TACR3 mRNA expression
TACR3 mRNA expression, dose-dependence [2]: trigger TACR3 mRNA expression in a concentration-related fashion
enhancement of the stimulatory effects of TAC3 gene products on SLα mRNA expression [1]: up to 8 fold increase

Compound: CN(C)CCCn1cc(C2=C(c3c[nH]c4ccccc34)C(=O)NC2=O)c2ccccc21 [GF109203X]
effect on SLα mRNA expression induced by IGF-I or senktide treatment alone [1]: attenuated
effect on the synergistic effect on SLα mRNA expression caused by IGF-I and senktide cotreatment [1]: notably suppressed

Compound: O=S(=O)(NCCNC/C=C/c1ccc(Br)cc1)c1cccc2cnccc12 [H89]
effect on SLα mRNA expression induced by IGF-I or senktide treatment alone [1]: attenuated
effect on the synergistic effect on SLα mRNA expression caused by IGF-I and senktide cotreatment [1]: notably suppressed

Compound: CCCCCCCC(=O)OCC(CO)OC(=O)CCCCCCC (stereo not drawn) [Dic8]
SLα mRNA levels, activator alone [1]: effective in elevating SLα mRNA levels

Compound: insulin: Human insulin, purchased from Sigma
TACR3 mRNA expression, dose-dependence [2]: not mimicked

Compound: COc1ccc(Cl)cc1NC(=O)Nc1cc(C)nc2ccccc12 [PQ401]
effect on IGF-I-induced TACR3 mRNA expression [2]: totally abolished

Compound: NCCOB(c1ccccc1)c1ccccc1 [2-APB]
effect on SLα mRNA expression induced by IGF-I or senktide treatment alone [1]: attenuated
effect on the synergistic effect on SLα mRNA expression caused by IGF-I and senktide cotreatment [1]: notably suppressed

Compound: Cl.c1ccc(C2CCCC2NC2=NCCCCCCCCCCC2)cc1 (stereo not drawn) [MDL12330A]
effect on SLα mRNA expression induced by IGF-I or senktide treatment alone [1]: attenuated
effect on the synergistic effect on SLα mRNA expression caused by IGF-I and senktide cotreatment [1]: notably suppressed

Compound: COC[C@H]1OC(=O)c2coc3c2[C@@]1(C)C1=C(C3=O)[C@@H]2CCC(=O)[C@@]2(C)C[C@H]1OC(C)=O [wortmannin]
effect on IGF-I-induced TACR3 mRNA expression [2]: notably suppressed

Compound: CC[C@H](NC(=O)c1c(C)c(-c2ccccc2)nc2ccccc12)c1ccccc1 [SB222200]
effect on the potentiating effect induced by IGF-I + NKBRPa on SLα transcript expression ([1]; antagonist 10 µM, IGF-I (100 nM) + NKBRPa (1 µM) (Figure 4F)): markedly reduced
effect on IGF-I- or NKBRPa-induced SLα transcript expression ([1]; antagonist 10 µM, NKBRPa 1 µM, IGF-I 100 nM (Figure 4F)): suppress

Compound: O=P(O)(O)C(O)c1ccc2ccccc2c1 (stereo not drawn) [HNMPA]
effect on IGF-I-induced TACR3 mRNA expression [2]: not effective

Compound: CO[C@H]1C[C@@H]2CC[C@@H](C)[C@@](O)(O2)C(=O)C(=O)N2CCCC[C@H]2C(=O)O[C@H]([C@H](C)C[C@@H]2CC[C@@H](O)[C@H](OC)C2)CC(=O)[C@H](C)/C=C(\C)[C@@H](O)[C@@H](OC)C(=O)[C@H](C)C[C@H](C)/C=C/C=C/C=C/1C [rapamycin]
effect on IGF-I-induced TACR3 mRNA expression [2]: notably suppressed

Compound: CCCCCCCCCCCCCC(=O)O[C@@H]1[C@@H](C)[C@@]2(O)[C@@H](C=C(CO)C[C@]3(O)C(=O)C(C)=C[C@@H]23)[C@@H]2C(C)(C)[C@]12OC(C)=O [TPA]
SLα mRNA levels, activator alone [1]: effective in elevating SLα mRNA levels

IC50 (grass carp TACR3): > 10 µM
Compound: GR64349: TACR2-specific agonist (NK2R agonist, Tocris)

Compound: COC(=O)C1=C(C)NC(C)=C(C(=O)OC)C1c1ccccc1[N+](=O)[O-] [nifedipine]
effect on SLα mRNA expression induced by IGF-I or senktide treatment alone [1]: attenuated
effect on the synergistic effect on SLα mRNA expression caused by IGF-I and senktide cotreatment [1]: notably suppressed

Compound: C=C[C@@]1(C)CC(=O)[C@]2(O)[C@@]3(C)[C@@H](O)CCC(C)(C)[C@@H]3[C@H](O)[C@H](OC(C)=O)[C@@]2(C)O1 [forskolin]
SLα mRNA levels, activator alone [1]: effective in elevating SLα mRNA levels
